Results taken from patent publication US20260092179A1, “GENETICALLY MODIFIED HOST CELLS PRODUCING VIOLACEIN, ANALOGUES, AND DERIVATIVES THEREOF” (OCTARINE BIO APS, priority 2022, published 2026).

Experiments:
[1] = Free radical scavenging ability of dyed Nylon 6,6 fabric (DPPH); assay type: biochemical; conditions: dyed Nylon 6,6 fabric strip
Experimental: Violacein is reported as being a potent antioxidant able to effectively scavenge free radicals. […] To test this, 1.5×1.5 cm dyed Nylon 6,6 fabric strips were incubated in the dark at room temperature for 1 h in 5 mL of a 5×10^−5 M DPPH free radical solution in 100% ethanol. Undyed Nylon 6,6 fabric strips were included as a negative control. After 1 h absorbance was measured at 517 nm and % scavenging ability calculated as above.

[2] = UV stability of dyed fabrics (colour fastness, ΔE); assay type: physicochemical; conditions: for ΔE: before vs after UV lamp, room temperature, 1 h
Experimental: (§1) In order to assess the stability and colour fastness of violacein and violacein derivatives dyed onto fabrics, dyed fabrics were subjected to a number of conditions. Fabrics were dyed according to Example 18 and colour coordinates and colour change before and after exposure to a given condition were determined as described in Example 18. To measure temperature stability, fabrics were incubated in an oven set to 80° c. for 4 h. To measure stability under acid and alkaline conditions, fabrics were fully submerged in water solutions set to pH 8 with NaOH and pH 5 with HCl and incubated at room temperature for 30 minutes. Fabrics were then incubated at 37° c. for 4 h. To measure stability during laundering, fabrics were washed at 30° c. under the “mix” setting of a Siemens IQ300 washing machine, then dried in a Siemens IQ300 dryer until dry. To measure artificial light stability, fabrics were placed under an LED lamp at room temperature for 16 h. To measure UV light stability, fabrics were placed under a UV lamp at room temperature for 1 h.

[3] = Stability during laundering of dyed fabrics (colour fastness, ΔE); assay type: physicochemical; conditions: washed at 30° c.
Experimental: as §1

[4] = Alkaline pH stability of dyed fabrics (colour fastness, ΔE); assay type: physicochemical; conditions: pH 8 with NaOH
Experimental: as §1

[5] = Acrylic, after test (UV lamp, room temperature, 1 h)
[6] = Bleached cotton, after test (UV lamp, room temperature, 1 h)
[7] = Diacetate, after test (UV lamp, room temperature, 1 h)
[8] = Nylon 6,6, after test (UV lamp, room temperature, 1 h)
[9] = Polyester, after test (UV lamp, room temperature, 1 h)
[10] = Wool, after test (UV lamp, room temperature, 1 h)
[11] = Acrylic, before and after the stability test
[12] = Bleached cotton, before and after the stability test
[13] = Diacetate, before and after the stability test
[14] = Nylon 6,6, before and after the stability test
[15] = Polyester, before and after the stability test
[16] = Wool, before and after the stability test

O=C1NC(c2c[nH]c3ccc(O)cc23)=C/C1=C1\C(=O)Nc2ccccc21 [violacein]
OD517 ([1]; 1 h in the dark in 5×10^−5 M DPPH in 100% ethanol): 1.64 | Scavenging ability % ([1]; 1 h in the dark in 5×10^−5 M DPPH, vs undyed control): 27.53% | L [2, 5]: 62.36 | a [2, 5]: 1.52 | b [2, 5]: 0.96 | L ([2]; Acrylic, before test): 59.81 | a ([2]; Acrylic, before test): 2.39 | b ([2]; Acrylic, before test): 0.08 | ΔE ([2]; Acrylic): 2.83 | L [2, 6]: 58.38 | a [2, 6]: 3.17 | b [2, 6]: −5.79 | L ([2]; Bleached cotton, before test): 58.11 | a ([2]; Bleached cotton, before test): 3.63 | b ([2]; Bleached cotton, before test): −8.4 | ΔE ([2]; Bleached cotton): 2.66 | L [2, 7]: 43.08 | a [2, 7]: 10.1 | b [2, 7]: −9.59 | L ([2]; Diacetate, before test): 41.1 | a ([2]; Diacetate, before test): 9.04 | b ([2]; Diacetate, before test): −13.41 | ΔE ([2]; Diacetate): 4.43 | L [2, 8]: 35.29 | a [2, 8]: 4.36 | b [2, 8]: −18.03 | L ([2]; Nylon 6,6, before test): 34.58 | a ([2]; Nylon 6,6, before test): 4.58 | b ([2]; Nylon 6,6, before test): −19.61 | ΔE ([2]; Nylon 6,6): 1.75 | L [2, 9]: 68.13 | a [2, 9]: 1.99 | b [2, 9]: −0.71 | L ([2]; Polyester, before test): 67.13 | a ([2]; Polyester, before test): 1.68 | b ([2]; Polyester, before test): −1.12 | ΔE ([2]; Polyester): 1.12 | L [2, 10]: 68.91 | a [2, 10]: 2.13 | b [2, 10]: 1.49 | L ([2]; Wool, before test): 68.14 | a ([2]; Wool, before test): 0.77 | b ([2]; Wool, before test): 1.77 | ΔE ([2]; Wool): 1.59 | L ([3]; Acrylic, After test): 76.54 | a ([3]; Acrylic, After test): 1.43 | b ([3]; Acrylic, After test): 1.73 | L ([3]; Acrylic, Before test): 62.97 | a ([3]; Acrylic, Before test): 2.52 | b ([3]; Acrylic, Before test): 0.79 | ΔE [3, 11]: 13.65 | L ([3]; Bleached cotton, After test): 67.09 | a ([3]; Bleached cotton, After test): 2.56 | b ([3]; Bleached cotton, After test): −9.43 | L ([3]; Bleached cotton, Before test): 59.44 | a ([3]; Bleached cotton, Before test): 2.08 | b ([3]; Bleached cotton, Before test): −7.15 | ΔE [3, 12]: 8.00 | L ([3]; Diacetate, After test): 48.28 | a ([3]; Diacetate, After test): 7.64 | b ([3]; Diacetate, After test): −12.1 | L ([3]; Diacetate, Before test): 44.66 | a ([3]; Diacetate, Before test): 6.86 | b ([3]; Diacetate, Before test): −11.23 | ΔE [3, 13]: 3.80 | L ([3]; Nylon 6,6, After test): 36.95 | a ([3]; Nylon 6,6, After test): 5.38 | b ([3]; Nylon 6,6, After test): −21.45 | L ([3]; Nylon 6,6, Before test): 34.78 | a ([3]; Nylon 6,6, Before test): 4.7 | b ([3]; Nylon 6,6, Before test): −19.46 | ΔE [3, 14]: 3.02 | L ([3]; Polyester, After test): 78.67 | a ([3]; Polyester, After test): 0.26 | b ([3]; Polyester, After test): 0.27 | L ([3]; Polyester, Before test): 69.07 | a ([3]; Polyester, Before test): 1.41 | b ([3]; Polyester, Before test): −0.67 | ΔE [3, 15]: 9.71 | L ([3]; Wool, After test): 73.9 | a ([3]; Wool, After test): 1.48 | b ([3]; Wool, After test): 1.8 | L ([3]; Wool, Before test): 66.17 | a ([3]; Wool, Before test): 1.43 | b ([3]; Wool, Before test): 0.12 | ΔE [3, 16]: 7.91 | L ([4]; Acrylic, After test): 63.85 | a ([4]; Acrylic, After test): 2.52 | b ([4]; Acrylic, After test): 0.06 | L ([4]; Acrylic, Before test): 65.79 | a ([4]; Acrylic, Before test): 3.11 | b ([4]; Acrylic, Before test): 0.28 | ΔE [4, 11]: 2.04 | L ([4]; Bleached cotton, After test): 60.76 | a ([4]; Bleached cotton, After test): 3.22 | b ([4]; Bleached cotton, After test): −7.53 | L ([4]; Bleached cotton, Before test): 59.94 | a ([4]; Bleached cotton, Before test): 2.69 | b ([4]; Bleached cotton, Before test): −8.23 | ΔE [4, 12]: 1.20 | L ([4]; Diacetate, After test): 44.97 | a ([4]; Diacetate, After test): 7.85 | b ([4]; Diacetate, After test): −11.19 | L ([4]; Diacetate, Before test): 43.93 | a ([4]; Diacetate, Before test): 8.84 | b ([4]; Diacetate, Before test): −14.67 | ΔE [4, 13]: 3.76 | L ([4]; Nylon 6,6, After test): 33.91 | a ([4]; Nylon 6,6, After test): 5.25 | b ([4]; Nylon 6,6, After test): −19.35 | L ([4]; Nylon 6,6, Before test): 34.13 | a ([4]; Nylon 6,6, Before test): 6.3 | b ([4]; Nylon 6,6, Before test): −20.23 | ΔE [4, 14]: 1.39 | L ([4]; Polyester, After test): 68.28 | a ([4]; Polyester, After test): 1.01 | b ([4]; Polyester, After test): −0.5 | L ([4]; Polyester, Before test): 66.44 | a ([4]; Polyester, Before test): 4.15 | b ([4]; Polyester, Before test): −2.11 | ΔE [4, 15]: 3.98 | L ([4]; Wool, After test): 66.99 | a ([4]; Wool, After test): −0.18 | b ([4]; Wool, After test): 1.19 | L ([4]; Wool, Before test): 67.52 | a ([4]; Wool, Before test): 0.35 | b ([4]; Wool, Before test): 1.01 | ΔE [4, 16]: 0.77
